According to US9789096B2, “Methods and compositions for selective and targeted cancer therapy” (Board of Regents of the University of Texas System, priority 2013, dated 2017):
Like-named read-outs stand apart in the source and are kept apart here.

What was measured:
H2122 = test: Cell viability dose-response, H2122; type: cell-based, human
How it was run: (§1)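 Cells plated at 15% confluence in RPMI-1640 with 5% FBS and 2 mM L-glutamine, treated with compound in a 12-point, 3-fold dilution series from 50 micromolar, in duplicate. ATP measured by Cell Titer Glo after 4 days; IC50 taken from the dose-response curve.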

HCC44 = test: Cell viability dose-response, HCC44; type: cell-based, human; settings: Homo sapiens
How it was run: (§2)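 Steps: seed cells to 15% confluence in RPMI-1640 supplemented with 5% fetal bovine serum and 2 mM glutamine; add compound across a concentration range; incubate 4 days; measure total ATP with CellTiter-Glo. IC50 is derived from the curve.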

HopS62 = test: Cell viability dose-response, HopS62; type: cell-based; settings: Homo sapiens; Table 4; read-out: IC50 (uM) vs indicated non-small cell lung cancer cell line HopS62
Method: (§3) FIG. 6A. […] Cell viability is plotted vs. compound concentration. Compound was added to cells plated at 15% confluence in 96-well plates in RPMI-1640 media supplemented with 5% Fetal Bovine Serum and 2 mM L-Glutamine. After 4 days of incubation, ATP levels were measured using Cell Titer Glo (Promega). Data are presented as the average of 2 replicates ±SEM.
(§4) Selectivity may be measured by the half maximal inhibitory concentration (IC50), which, as used herein, is a measure of the effectiveness of a compound in killing cells. This quantitative measure indicates how much of a particular compound is needed to kill a particular cell population by half (e.g., as indicated by the amount of ATP). […] The IC50 can be determined by constructing a dose-response curve. The lower the IC50, the higher the potency, and the greater the difference between IC50 values for different cell lines (e.g., sensitive lines vs. insensitive lines, and sensitive lines vs. normal lines) the greater the selectivity.
With this information, we synthesized and tested a series of small molecules derived in conception from the oxalamide and chromone scaffold including N-acyl ureas, as shown in Tables 6-8. Each compound was tested in a 12-point dose-response study starting at 50 micromolar and decreasing in 3-fold increments to sub-nanomolar concentrations, in duplicate. […]

[1] = tested on: 12 lung adenocarcinoma cell lines; test: Proliferation of the panel of 12 lung adenocarcinoma cell lines; type: cell-based, human
Method: as §3
To discover selective agents, twelve cell lines of diverse genotype were selected for analysis. 108 lung cancer cell lines were initially clustered into six groups based on mRNA expression of genes that underwent frequent copy number variation. Two cell lines were chosen from each group for high throughput chemical screening. All 12 of the chosen cell lines were derived from lung adenocarcinomas, eliminating both lineage and histology as confounders. None of the cell lines chosen for screening harbored EGFR mutations or ALK rearrangements, so that the final set represented a collection of diverse lung adenocarcinoma genotypes for which there are no targeted therapy.
The proliferative impact of each compound in the library was assayed by analyzing total ATP four days after administration of 2.5 μM in a single well. This first pass yielded 15,843 toxins defined as a compound where ATP levels were […] three standard deviations below the mean for at least one cell line. For each of these putative toxins, the average effect on proliferation was retested on each cancer cell line and a non-cancerous immortalized HBEC line (control), yielding a confirmation dataset.
In addition, N-acyl benzothiazoles was also discovered, such as 4-amino-N-(6-methoxybenzo[d]thiazol-2-yl)benzamide (ATB). We compared the proliferation of 12 lung adenocarcinoma cell lines and three HBEC lines after the addition of ATB.
We subsequently synthesized various derivatives that are both selective and potent (Tables 1 and 2). One leading candidate is a benzothiazole, SW202857, that inhibits proliferation in three of 12 adenocarcinoma cell lines at concentrations less than 10 nM.

H2122 cells = test: Toxicity to H2122 cells with or without CYP4 inhibitor HET0016; type: cell-based, human
HBEC30KT = test: Cell viability (ATP, Cell Titer Glo, 4 days), HBEC30KT; type: cell-based, human
H1155 = test: Cell viability dose-response, H1155; type: cell-based; settings: Homo sapiens, NCI-H1155
Method: as §3
as §4, with “selectivity. […]” for “selectivity.”
(§5) With this information, we synthesized and tested a series of small molecules derived in conception from the oxalamide and chromone scaffold including N-acyl ureas, as shown in Tables 6-8. Each compound was tested in a 12-point dose-response study starting at 50 micromolar and decreasing in 3-fold increments to sub-nanomolar concentrations, in duplicate. Additionally, one or more additional cell line was tested in the same way.

H1395 = test: Cell viability dose-response, H1395; type: cell-based; settings: Homo sapiens, NCI-H1395
Method: as §3
as §4, with “selectivity. […]” for “selectivity.”
as §5

H1819 = test: Cell viability dose-response, H1819; type: cell-based, human
How it was run: as §1

H1993 = test: Cell viability dose-response, H1993; type: cell-based; settings: Homo sapiens, NCI-H1993
Method: as §3
as §4, with “selectivity. […]” for “selectivity.”
as §5

H2009 = test: Cell viability dose-response, H2009; type: cell-based, human; settings: Homo sapiens, NCI-H2009
How it was run: as §2

H2073 = test: Cell viability dose-response, H2073; type: cell-based, human; settings: Homo sapiens
How it was run: as §2

H460 = test: Cell viability dose-response, H460; type: cell-based; settings: Homo sapiens, NCI-H460
Method: as §3
as §4, with “selectivity. […]” for “selectivity.”
as §5

HCC366 = test: Cell viability dose-response, HCC366; type: cell-based; settings: Homo sapiens
Method: as §3
as §4, with “selectivity. […]” for “selectivity.”
as §5

HCC4017 = test: Cell viability dose-response, HCC4017; type: cell-based, human
Method: as §3
as §4, with “selectivity. […]” for “selectivity.”
as §5

HCC95 = test: Cell viability dose-response, HCC95; type: cell-based; settings: Homo sapiens
Method: as §3
as §4, with “selectivity. […]” for “selectivity.”
as §5

[2] = Homo sapiens, NCI-H2122, Tables 3 and 4, read-out: IC50 (uM) vs indicated non-small cell lung cancer cell line H2122
[3] = HCC44, Tables 3 and 4, read-out: IC50 (uM) vs indicated non-small cell lung cancer cell line HCC44
[4] = Homo sapiens, NCI-H2122, Table 9, competitor, read-out: IC50 to H2122 cells
[5] = Homo sapiens, Tables 3 and 4, read-out: HBEC30KT IC50
[6] = Tables 3 and 4, read-out: IC50 (uM) vs indicated non-small cell lung cancer cell line H1155
[7] = Tables 3 and 4, read-out: IC50 (uM) vs indicated non-small cell lung cancer cell line H1395
[8] = Homo sapiens, NCI-H1819, Tables 3 and 4, read-out: IC50 (uM) vs indicated non-small cell lung cancer cell line H1819
[9] = Tables 3 and 4, read-out: IC50 (uM) vs indicated non-small cell lung cancer cell line H1993
[10] = Tables 3 and 4, read-out: IC50 (uM) vs indicated non-small cell lung cancer cell line H2009
[11] = NCI-H2073, Tables 3 and 4, read-out: IC50 (uM) vs indicated non-small cell lung cancer cell line H2073
[12] = Tables 3 and 4, read-out: IC50 (uM) vs indicated non-small cell lung cancer cell line H460
[13] = Tables 3 and 4, read-out: IC50 (uM) vs indicated non-small cell lung cancer cell line HCC366
[14] = Homo sapiens, HCC4017, Tables 3 and 4, read-out: IC50 (uM) vs indicated non-small cell lung cancer cell line HCC4017
[15] = Tables 3 and 4, read-out: IC50 (uM) vs indicated non-small cell lung cancer cell line HCC95

SMILES	IC50 (H2122; [2]) [µM]	IC50 (HCC44; [3]) [µM]	IC50 (H2122; [4]) [µM]	IC50 (H1155; [6]) [µM]	IC50 (H1395; [7]) [µM]	IC50 (H1819; [8]) [µM]	IC50 (H1993; [9]) [µM]	IC50 (H2009; [10]) [µM]	IC50 (H2073; [11]) [µM]	IC50 (H460; [12]) [µM]	IC50 (HCC366; [13]) [µM]	IC50 (HCC95; [15]) [µM]	other results
O=C(Nc1nc2c(s1)CCC2)c1ccc(C(=O)c2ccccc2)cc1 [SW208666-1]	0.26	3.52											IC50 (HopS62): 0.09 µM
CNC(=O)c1cccc(NC(=O)N2CCC(Oc3ccccc3Cl)CC2)c1 [compound 28c, reference compound]													toxicity to the same 4 non-small cell lung cancer cell lines ([1]; FIG. 8E): toxic
O=C(NCCc1ccc(O)cc1)NC(=O)c1ccc(Oc2ccccc2)cc1 [SW208523]			0.0197										toxicity to H2122 cells in the presence of CYP450 inhibitor HET0016 (H2122 cells): toxic to H2122 cells in the presence or absence of the CYP450 inhibitor
COc1ccc(CCNC(=O)NC(=O)c2ccc(Oc3ccccc3)cc2)cc1 [SW208456]			0.0134										toxicity to H2122 cells in the presence of CYP450 inhibitor HET0016 (H2122 cells): rescued
COc1ccc2nc(NC(=O)c3ccc(N)cc3)sc2c1 [SW001286]	0.048	3	0.04	25	35	24	27	22	0.3	0.4	35	2	IC50 (HBEC30KT; [5]): 130 µM; IC50 (HCC4017; [14]): 35 µM
COc1ccc(C(=O)c2ccc(NC(=O)c3sc4ccccc4c3Cl)cc2)cc1 [SW202855-1]	18.3	25.4		46.1	28.4	32	17.8	13.9	36.2	28.8	49	9.84	IC50 (HBEC30KT; [5]): 24.3 µM; IC50 (HCC4017; [14]): 15.7 µM
O=C(Nc1cccc(NC(=O)c2sc3ccccc3c2Cl)c1)c1cccc(Cl)c1 [SW023441]	0.39	32		29	10.5	16.4	11	9.4	6.2	48	23	14	IC50 (HBEC30KT; Tables 3 and 4, read-out: HBEC30KT IC50): 30 µM; IC50 (HCC4017; Tables 3 and 4, read-out: IC50 (uM) vs indicated non-small cell lung cancer cell line HCC4017): 18 µM
O=C(Nc1nc2ccccc2o1)c1ccc(C(=O)c2ccccc2)cc1 [SW208665-1]	42.7	2.14	0.8										IC50 (HopS62): 1.93 µM
COc1ccc2nc(NC(=O)c3ccc(N)cc3)sc2c1 [ATB, 4-amino-N-(6-methoxybenzo[d]thiazol-2-yl)benzamide]													IC50 (H2122; Homo sapiens, NCI-H2122, read-out: IC50 against the most sensitive cell line (H2122)): 0.048 µM; IC50 ([1]; Homo sapiens, read-out: IC50 against 10 other cell lines, including the normal line): > 1 µM
COc1ccc(CCNC(=O)C(=O)Nc2cccc(Br)c2)cc1 [SW027952]													IC50 (HBEC30KT; Homo sapiens, 12-point dose-response starting at 50 micromolar, 3-fold increments, in duplicate, read-out: toxicity data, HBEC30KT): 19.8 µM; IC50 (H1155; 12-point dose-response starting at 50 micromolar, 3-fold increments, in duplicate, read-out: toxicity data, H1155): 50 µM; IC50 (H1395; 12-point dose-response starting at 50 micromolar, 3-fold increments, in duplicate, read-out: toxicity data, H1395): 50 µM; IC50 (H1819; 12-point dose-response starting at 50 micromolar, 3-fold increments, in duplicate, read-out: toxicity data, H1819): ≥ 50 µM; IC50 (H1993; 12-point dose-response starting at 50 micromolar, 3-fold increments, in duplicate, read-out: toxicity data, H1993): 50 µM; IC50 (H2009; 12-point dose-response starting at 50 micromolar, 3-fold increments, in duplicate, read-out: toxicity data, H2009): 11.3 µM; IC50 (H2073; NCI-H2073, 12-point dose-response starting at 50 micromolar, 3-fold increments, in duplicate, read-out: toxicity data, H2073): 17.5 µM; IC50 (H2122; 12-point dose-response starting at 50 micromolar, 3-fold increments, in duplicate, read-out: toxicity data, H2122): 1.04 µM; IC50 (H460; 12-point dose-response starting at 50 micromolar, 3-fold increments, in duplicate, read-out: toxicity data, H460): 50 µM; IC50 (HCC366; 12-point dose-response starting at 50 micromolar, 3-fold increments, in duplicate, read-out: toxicity data, HCC366): 50 µM; IC50 (HCC4017; Homo sapiens, HCC4017, 12-point dose-response starting at 50 micromolar, 3-fold increments, in duplicate, read-out: toxicity data, HCC4017): ≥ 50 µM; IC50 (HCC44; HCC44, 12-point dose-response starting at 50 micromolar, 3-fold increments, in duplicate, read-out: toxicity data, HCC44): ≥ 50 µM; IC50 (HCC95; 12-point dose-response starting at 50 micromolar, 3-fold increments, in duplicate, read-out: toxicity data, HCC95): 0.24 µM
